{"source": "patent US20110212899A1", "about": "“Corneal Neuritogenesis Promoter Containing Pacap and Its Derivative” (priority 2004, published 2011)", "key": {"[1]": {"tested_on": "cultured rabbit trigeminal nerve cells", "test": "Promoting effect on neuritogenesis in cultured rabbit trigeminal nerve cells (2) (Test Example 4)", "assay_type": "cell-based", "conditions": "cultured for 48 hours, control group 20.7%", "excerpt": "Japanese white rabbits (2 to 3 days old) purchased from Kitayama Labes Co., Lid. were used.\nRabbit trigeminal nerve cells were isolated according to a method reported by Chan et al. (Kwan Y. Chan and Richard H. Haschke, Exp. Eye Res. 41: 687-699, 1985). The rabbit was subjected to cardiac perfusion with physiological saline under ether anesthesia. A trigeminal ganglion was excised from the rabbit, and then dispersed in a nerve dispersion liquid (Sumitomo Bakelite Co., Ltd.) to prepare trigeminal nerve cells. The trigeminal nerve cells were cultured in Neurobasal medium (Invitrogen Corp) supplemented with B27 Supplement (Invitrogen Corp; final concentration: 2% v/v) and L-glutamine (Invitrogen Corp; final concentration: 1 mM) under 5% CO2 and 95% air at a humidity of 100% and a temperature of 37° C. […]\nFor evaluating neuritogenesis in the cultured rabbit trigeminal nerve cells, the length of the longest neurite and the major axis of the cell body in the stained cell images scanned into the computer were measured using image analysis software (Image-Pro Plus ver. 4.0, Planetron, Inc.) The cells in 3 wells for each group were measured. […] The proportion (%) of the neurite forming cells in the total cell number was calculated (Otori, Y., Wei, J. Y., Barnstable, C. J., Invest. Opthalmol. Vis. Sic., (1998)39, 972-981). […]"}, "[2]": {"tested_on": "rabbit eye (tear secretion)", "test": "Promoting effect on tear secretion in a rabbit (Schirmer method, Test Example 6)", "assay_type": "in vivo", "conditions": "0.1% eye drops, 50 μL; from 20 minutes to 120 minutes after administration", "procedure": "Changes in the tear amount when PACAP27 and peptide 24 were administered to the eyes of a rabbit were examined. Japanese white rabbits with a body weight of 1.5 to 2.0 kg purchased from Kitayama Labes Co., Ltd were used. The animals were each put in separate cages placed in a room wherein a temperature of 23±3° C. and a humidity of 55±10% were kept and a light was on for 12 hours per day (lighting at 8:00 and lights-out at 20:00), and raised after arrival until the final day of the test. The animals were given 100 g of solid feed (Labo R Stock, Nosan Corporation) per day, and could freely have tap water. PACAP27 and peptide 24 were used as test substances. […] The amount of tear secreted was measured at 8.5 minutes before administration, and at 10 minutes, 20 minutes, 30 minutes, 60 minutes and 120 minutes after the administration by a Schirmer method. […] After the tear in the lower eyelid conjunctival sac was wiped with filter paper, the amount of tear secreted in 1 minute was measured using a Schirmer's test strip (Showa Yakuhin Kako Co.). The difference between the tear secretion amount at each time point after administration of the eye drops and the tear secretion amount before administration of the eye drops was calculated as a change in the tear amount caused by the test substance. […]"}, "[3]": {"tested_on": "Human normal corneal epithelial cells", "test": "Promoting effect on proliferation of cultured corneal epithelial cells (Test Example 8)", "assay_type": "cell-based", "conditions": "final concentration (10^−5 M), cultivation for 8 days; p<0.05", "procedure": "Human normal corneal epithelial cells (Kurabo Industries Ltd., strain No. 4C0466) were used. Peptide 24 and PACAP27 were used as test substances. The test substance was dissolved in distilled water at a concentration 1000 times of the final concentration (10^−5 M), and the concentration was then adjusted to twice the final concentration with a serum-free proliferation medium for human corneal epithelial cells (EpiLife (−), Kurabo Industries Ltd.). After thawing freeze-preserved human normal corneal epithelial cells, the cells were seeded according to a conventional method and cultured for 7 days at 37° C. in 5% CO2. After the cultivation, the cells were harvested by a conventional method, and were suspended in EpiLife (−) at a concentration of 1.0×10^4 cells/mL. […] The number of the cells was counted based on the ability to reduce MTT (3-(4,5-dimethyl-2-thiazolyl)-2,5-diphenyl-2H-tetrazolium bromide) according to the protocol of Cell Counting Kit-8 (Dojindo Laboratories). […] The plate was incubated at 37° C. in 5% CO2 for 2 hours and then, the absorbance was measured at 450 nm using a microplate reader. Average values of absorbance in the control group and each test substance-addition group were calculated, and the values were compared between the control group and each test substance-addition group by a Dunnett's multiple comparison test (one-tailed). […]"}}, "note": "Where no end group is shown, it is not given here.", "data": [{"substance": "His-Ser-Asp-Ala-Ile-Phe-Thr-Asp-Ser-Tyr-Ser-Arg-Tyr-Arg-Arg-Gln-Leu-Ala-Val-Arg-Arg-Tyr-Leu-Ala-Ala-Val-Leu-Gly-Arg-Arg-NH2 (HSDAIFTDSYSRYRRQLAVRRYLAAVLGRR-NH2) [Peptide 24]", "values": [{"measurement": "proportion (%) of the neurite forming cells in the total cell number", "setting": "[1]; 0.1 μM", "result": 42.5, "unit": "%"}, {"measurement": "proportion (%) of the neurite forming cells in the total cell number", "setting": "[1]; 1 μM", "result": 51.4, "unit": "%"}, {"measurement": "tear secretion amount compared with vehicle solution-administration group", "setting": "[2]", "result": "significant increase"}, {"measurement": "cell number (MTT reduction ability) compared with control group", "setting": "[3]", "result": "increased"}]}]}
